Data published in patent US6833150B1, “Spray -dried bacteriocin powder with anti-microbial activity” (Teagasc, The Agriculture and Food Development Authority, priority 2001, dated 2004).

How the values were obtained:
[1] = system: Gram-positive organisms, including Listeria, Clostridium spp., Enterococcus, Staphylococcus and Streptococcus; conditions: cited from earlier work
Staph. aureus ATCC6538 = test: High pressure and lacticin 3147 inactivation in milk (10% RSM); assay type: cell-based, Staphylococcus aureus
Method: For the inactivation of Staph. aureus ATCC6538 a liquid preparation of lacticin 3147 was prepared using hydrophobic adsorption chromatography. For studies on inactivation of L. innocua DPC1770 a food grade powdered preparation of lacticin 3147 was manufactured as described above with the following modification; a 1% demineralised whey powder solution was fermented with L. lactis subsp. lactis DPC3147 under pH controlled conditions of pH 6.0 for 18 hours.
Staph. aureus ATCC6538 cells were resuspended in 10% RSM and aliquoted into sterile 700 μl PCR eppendorfs prior to placing in sterile stomacher bags (Seward Ltd., London, UK). Ten millilitre volumes of L. innocua DPC1770 cells were resuspended in 20% reconstituted demineralised whey powder aliquoted into sterile stomacher bags. Samples were individually vacuum sealed prior to placing in the pressure vessel (Stansted Fluid Power Ltd., Stansted, England). The vessel consisted of a stainless-steel cylinder (37 mm diameter×300 mm height) filled with a 15% (v/v) caster oil in ethanol solution which acts as the hydrostatic pressurisation medium. Samples were treated for 30 min at 25° C. in the pressure range 150 to 600 MPa, in addition to a control sample being held at atmospheric pressure (0.1 MPa). […] The chamber temperature was determined by means of a thermoregulating system which circulated to maintain the chamber temperature.

[2] = system: L. lactis subsp lactis HP; test: Bacteriocin activity by agar well diffusion assay; assay type: cell-based, Lactococcus lactis; conditions: for Bacteriocin activity: 10% reconstituted demineralized whey powder; for Lacticin 3147 activity: overnight incubation at 30° C.
Method: Bacteriocin activity was determined by the agar well diffusion assay as described by Parente and Hill (15). Molten agar was seeded with an indicator strain and dispensed into petri dishes. Wells of approximately 4.6 mm in diameter were bored in the agar and a 50 μl volume of a two fold serial dilution of a bacteriocin preparation was dispensed into each well. Bacteriocin solution was prepared by centrifuging the culture and heat treating the supernatant at 70° C. for 10 minutes prior to carrying out the dilution series. The plates were then incubated at either 30° C. or 37° C., depending on the indicator strain used. Bacteriocin activity was calculated as the inverse of the last dilution that gave a definite zone of clearance after overnight incubation. Activity units (AU) were expressed per milliliter (1/dilution, ×20).
(§1) Activity of both lacticin 3147 preparations was determined by the agar well diffusion assay as described by Parente and Hill (15). Molten agar was seeded with the indicator strain L. lactis subsp. lactis HP and dispensed into petri dishes. Wells of approximately 6.0 mm in diameter were bored in the agar and a 50 μl volume of a two fold serial dilution of a bacteriocin preparation was dispensed into each well. The plates were then incubated at 30° C. Bacteriocin activity was calculated as the inverse of the last dilution that gave a definite zone of clearance after overnight incubation. Activity units (AU) were expressed per milliliter (1/dilution, ×20). Activity may also be expressed as zone diameter (mm), where the diameter of the first zone (neat, undiluted sample) of the dilution series is recorded.

L. lactis HP = test: Effect of high pressure on lacticin 3147 activity (well diffusion assay); assay type: cell-based, Lactococcus lactis; conditions: pressures greater than 400 MPa
Method: as §1
Pressurised and non-pressurised solutions of lacticin 3147 were heat treated at 80° C. for 10 minutes prior to carrying out activity determination by the well diffusion assay using L. lactis HP as an indicator strain.

lacticin 3147
inhibitory spectrum [1]: inhibitory to a wide range of Gram-positive organisms
logs of kill (Staph. aureus ATCC6538; combination of 250 MPa and lacticin 3147, 30 min at 25° C.): more than 6 logs
log reduction (Staph. aureus ATCC6538; concentrated lacticin 3147 from culture supernatant alone): 1 log
Bacteriocin activity ([2]; constant pH 6.0, 30° C.): 5120 AU/ml
Bacteriocin activity ([2]; constant pH 7.0, 30° C.): 5120 AU/ml
Bacteriocin activity ([2]; no pH control, 30° C.): 640 AU/ml
Bacteriocin activity ([2]; pH held constant at pH 6.5, 30° C.): 10,240 AU/ml
Effect of pasteurisation on bacteriocin activity ([2]; 72° C. for 15 sec): no effect
Bacteriocin activity during manufacture ([2]; after evaporation at 60° C. from 10% to 40% total solids): 40,960 AU/ml
Activity of the concentrate following overnight crystallisation ([2]; cooled from 32° C. at 1° C. per hour overnight): remained stable
Bacteriocin activity during manufacture ([2]; following the pH controlled 170 L fermentation (pH 6.5, 10% total solids)): 10,240 AU/ml
Lacticin 3147 activity ([2]; growth medium 10% reconstituted demineralised whey powder): 1,280 AU/ml
Lacticin 3147 activity ([2]; growth medium 10% reconstituted demineralised whey powder, listed as Lacticin 3147): 1280 AU/ml
Lacticin 3147 activity ([2]; growth medium 10% reconstituted skimmed milk powder): 1,280 AU/ml
Lacticin 3147 activity ([2]; growth medium 10% reconstituted skimmed milk powder, listed as Lacticin 3147): 1280 AU/ml
Lacticin 3147 activity ([2]; growth medium Cheddar cheese whey): 2,560 AU/ml
Lacticin 3147 activity ([2]; growth medium Cheddar cheese whey, listed as Lacticin 3147): 2560 AU/ml
Lacticin 3147 activity ([2]; growth medium LM17): 2,560 AU/ml
Lacticin 3147 activity ([2]; growth medium LM17, listed as Lacticin 3147): 2560 AU/ml
Lacticin 3147 activity ([2]; growth medium TY broth): 640 AU/ml
Lacticin 3147 activity ([2]; growth medium whey protein concentrate (WPC35)): 320 AU/ml
Lacticin 3147 activity ([2]; growth medium whole milk): 2,560 AU/ml
Lacticin 3147 activity ([2]; growth medium whole milk, listed as Lacticin 3147): 2560 AU/ml
Lacticin 3147 activity expressed as AU/g of dry matter throughout manufacture ([2]; remained constant through pasteurisation, evaporation, crystallisation, spray drying): 102,400 AU/g
change in bacteriocin activity after pressure treatment (L. lactis HP): doubling of activity
